Tests used:
[1] = target: Ribosomal protein S6 kinase alpha-3 (Homo sapiens) (UniProt P51812); experiment: Inhibition of human RSK2 assessed as residual activity at 10 uM relative to control
[2] = target: Serine/threonine-protein kinase N2 (Homo sapiens) (UniProt Q16513); experiment: Inhibition of human PRK2 assessed as residual activity at 1 uM relative to control
[3] = target: Insulin receptor-related protein (Homo sapiens) (UniProt P14616); experiment: Inhibition of human IRR assessed as residual activity at 1 uM relative to control
[4] = organism: Bos taurus; experiment: Inhibition of cow PKA assessed as residual activity at 10 uM relative to control
[5] = target: Calcium/calmodulin-dependent protein kinase type 1 (Homo sapiens) (UniProt Q14012); experiment: Inhibition of human CAMK1 assessed as residual activity at 1 uM relative to control
Sequence of Calcium/calmodulin-dependent protein kinase type 1 (Homo sapiens) (Q14012 whole entry, looked up): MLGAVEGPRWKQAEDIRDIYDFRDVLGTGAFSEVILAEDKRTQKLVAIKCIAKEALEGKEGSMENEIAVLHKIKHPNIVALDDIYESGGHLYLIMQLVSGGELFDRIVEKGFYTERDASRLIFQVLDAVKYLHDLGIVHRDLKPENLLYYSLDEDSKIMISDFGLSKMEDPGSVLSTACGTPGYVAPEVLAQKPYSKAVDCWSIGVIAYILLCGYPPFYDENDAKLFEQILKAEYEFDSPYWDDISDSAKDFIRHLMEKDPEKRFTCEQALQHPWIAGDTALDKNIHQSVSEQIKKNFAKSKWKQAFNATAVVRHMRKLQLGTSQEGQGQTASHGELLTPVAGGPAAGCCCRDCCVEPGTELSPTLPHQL

[6] = target: RAC-alpha serine/threonine-protein kinase (Homo sapiens) (UniProt P31749); experiment: Inhibition of human PKBalpha assessed as residual activity at 10 uM relative to control
Sequence of RAC-alpha serine/threonine-protein kinase (Homo sapiens) (P31749 whole entry): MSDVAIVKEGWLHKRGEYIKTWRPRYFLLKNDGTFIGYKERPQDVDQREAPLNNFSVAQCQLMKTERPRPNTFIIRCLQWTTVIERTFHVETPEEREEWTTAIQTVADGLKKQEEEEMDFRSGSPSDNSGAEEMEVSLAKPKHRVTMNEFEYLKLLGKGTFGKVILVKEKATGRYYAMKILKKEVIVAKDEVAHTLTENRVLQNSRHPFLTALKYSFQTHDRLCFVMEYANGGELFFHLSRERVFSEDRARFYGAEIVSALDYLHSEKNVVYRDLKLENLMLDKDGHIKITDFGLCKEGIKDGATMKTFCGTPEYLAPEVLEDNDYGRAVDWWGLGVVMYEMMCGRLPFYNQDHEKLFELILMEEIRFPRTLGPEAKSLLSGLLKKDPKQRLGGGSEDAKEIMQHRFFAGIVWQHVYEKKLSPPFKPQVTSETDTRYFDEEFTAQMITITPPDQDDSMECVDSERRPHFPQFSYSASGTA

[7] = target: Dual specificity tyrosine-phosphorylation-regulated kinase 1A (Rattus norvegicus) (UniProt Q63470); experiment: Inhibition of rat DYRK1alpha assessed as residual activity at 1 uM relative to control
[8] = target: T1, Fibroblast growth factor receptor 1 (Homo sapiens, UniProt P11362); experiment: Inhibition of human FGFR1 assessed as residual activity at 1 uM relative to control
T1 sequence (P11362 22-822 limits assumed): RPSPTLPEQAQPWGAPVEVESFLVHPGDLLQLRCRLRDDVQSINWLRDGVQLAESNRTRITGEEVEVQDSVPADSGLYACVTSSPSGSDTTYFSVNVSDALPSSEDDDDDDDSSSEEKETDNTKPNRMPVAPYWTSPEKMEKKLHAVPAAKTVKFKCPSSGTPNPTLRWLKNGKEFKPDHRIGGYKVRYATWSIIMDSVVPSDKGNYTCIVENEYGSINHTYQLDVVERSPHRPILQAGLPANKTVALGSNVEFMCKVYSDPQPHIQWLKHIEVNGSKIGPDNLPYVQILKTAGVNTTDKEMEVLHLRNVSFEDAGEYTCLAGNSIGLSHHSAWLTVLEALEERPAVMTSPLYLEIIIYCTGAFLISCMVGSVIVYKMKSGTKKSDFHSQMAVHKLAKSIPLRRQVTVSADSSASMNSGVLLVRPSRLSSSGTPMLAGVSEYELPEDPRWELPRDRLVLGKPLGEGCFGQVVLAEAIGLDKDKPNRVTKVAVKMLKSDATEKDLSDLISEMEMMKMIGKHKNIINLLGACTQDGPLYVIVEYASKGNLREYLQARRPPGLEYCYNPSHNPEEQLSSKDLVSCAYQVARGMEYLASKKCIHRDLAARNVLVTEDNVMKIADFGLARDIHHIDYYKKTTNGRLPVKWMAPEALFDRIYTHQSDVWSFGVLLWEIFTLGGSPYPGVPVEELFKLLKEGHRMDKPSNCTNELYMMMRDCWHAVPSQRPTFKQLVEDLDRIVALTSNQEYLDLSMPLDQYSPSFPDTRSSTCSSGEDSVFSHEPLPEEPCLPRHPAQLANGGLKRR

[9] = target: Mitogen-activated protein kinase 8 (Homo sapiens) (UniProt P45983); experiment: Inhibition of human JNK1 assessed as residual activity at 10 uM relative to control
Sequence of Mitogen-activated protein kinase 8 (Homo sapiens) (P45983 whole entry): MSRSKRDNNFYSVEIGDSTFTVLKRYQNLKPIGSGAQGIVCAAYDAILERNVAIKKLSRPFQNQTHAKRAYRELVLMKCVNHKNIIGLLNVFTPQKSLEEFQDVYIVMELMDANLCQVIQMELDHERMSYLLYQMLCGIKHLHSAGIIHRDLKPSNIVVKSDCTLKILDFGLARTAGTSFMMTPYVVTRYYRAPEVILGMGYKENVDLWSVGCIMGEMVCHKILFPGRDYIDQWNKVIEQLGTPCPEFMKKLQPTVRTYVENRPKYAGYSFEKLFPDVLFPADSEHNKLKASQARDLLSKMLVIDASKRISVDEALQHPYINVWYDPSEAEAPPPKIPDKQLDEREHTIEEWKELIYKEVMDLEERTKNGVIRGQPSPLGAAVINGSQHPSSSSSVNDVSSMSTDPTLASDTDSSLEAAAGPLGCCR

[10] = target: Insulin receptor-related protein (Homo sapiens) (UniProt P14616); experiment: Inhibition of human IRR assessed as residual activity at 10 uM relative to control
[11] = target: Protein kinase C alpha type (Homo sapiens) (UniProt P17252); experiment: Inhibition of human PKCalpha assessed as residual activity at 1 uM relative to control
[12] = target: T1, Fibroblast growth factor receptor 1; experiment: Inhibition of human FGFR1 assessed as residual activity at 10 uM relative to control
[13] = target: Casein kinase I isoform delta (Rattus norvegicus) (UniProt Q06486); experiment: Inhibition of rat CK1delta assessed as residual activity at 10 uM relative to control
Sequence of Casein kinase I isoform delta (Rattus norvegicus) (Q06486 whole entry, looked up, canonical isoform): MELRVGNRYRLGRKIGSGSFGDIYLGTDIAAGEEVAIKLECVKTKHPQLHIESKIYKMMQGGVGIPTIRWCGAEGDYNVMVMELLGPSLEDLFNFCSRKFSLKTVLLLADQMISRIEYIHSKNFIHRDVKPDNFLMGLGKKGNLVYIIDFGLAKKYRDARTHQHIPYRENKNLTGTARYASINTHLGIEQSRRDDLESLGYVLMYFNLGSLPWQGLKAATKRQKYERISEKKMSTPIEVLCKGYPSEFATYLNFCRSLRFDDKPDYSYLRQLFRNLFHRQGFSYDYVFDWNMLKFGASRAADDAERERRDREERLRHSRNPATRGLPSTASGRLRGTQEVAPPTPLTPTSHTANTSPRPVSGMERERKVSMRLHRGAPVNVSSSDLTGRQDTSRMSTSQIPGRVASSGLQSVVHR

[14] = target: T2, Inhibitor of nuclear factor kappa-B kinase subunit beta (Homo sapiens) (UniProt O14920); experiment: Inhibition of human IKKbeta assessed as residual activity at 1 uM relative to control
T2 sequence (whole entry): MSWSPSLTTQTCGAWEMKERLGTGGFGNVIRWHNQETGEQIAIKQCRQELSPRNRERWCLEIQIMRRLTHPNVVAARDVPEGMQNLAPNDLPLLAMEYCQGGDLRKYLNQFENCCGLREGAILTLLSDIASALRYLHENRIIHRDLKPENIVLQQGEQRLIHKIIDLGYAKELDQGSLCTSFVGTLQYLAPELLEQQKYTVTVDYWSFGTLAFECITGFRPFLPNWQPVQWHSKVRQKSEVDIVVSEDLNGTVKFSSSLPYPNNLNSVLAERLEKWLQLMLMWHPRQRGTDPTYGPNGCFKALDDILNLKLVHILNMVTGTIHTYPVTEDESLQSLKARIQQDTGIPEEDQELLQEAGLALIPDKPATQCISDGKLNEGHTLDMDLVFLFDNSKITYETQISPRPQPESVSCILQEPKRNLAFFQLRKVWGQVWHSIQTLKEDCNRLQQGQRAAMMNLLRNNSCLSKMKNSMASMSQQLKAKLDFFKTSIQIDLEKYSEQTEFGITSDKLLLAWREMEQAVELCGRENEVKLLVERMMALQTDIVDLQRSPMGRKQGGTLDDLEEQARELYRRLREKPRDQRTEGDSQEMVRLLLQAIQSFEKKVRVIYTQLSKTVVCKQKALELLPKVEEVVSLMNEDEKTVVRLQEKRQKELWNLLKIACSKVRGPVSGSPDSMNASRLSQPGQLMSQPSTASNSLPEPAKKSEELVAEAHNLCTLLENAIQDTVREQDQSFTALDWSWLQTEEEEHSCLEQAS

[15] = target: Mitogen-activated protein kinase 9 (Homo sapiens) (UniProt P45984); experiment: Inhibition of human JNK2 assessed as residual activity at 10 uM relative to control
Sequence of Mitogen-activated protein kinase 9 (Homo sapiens) (P45984 whole entry, looked up): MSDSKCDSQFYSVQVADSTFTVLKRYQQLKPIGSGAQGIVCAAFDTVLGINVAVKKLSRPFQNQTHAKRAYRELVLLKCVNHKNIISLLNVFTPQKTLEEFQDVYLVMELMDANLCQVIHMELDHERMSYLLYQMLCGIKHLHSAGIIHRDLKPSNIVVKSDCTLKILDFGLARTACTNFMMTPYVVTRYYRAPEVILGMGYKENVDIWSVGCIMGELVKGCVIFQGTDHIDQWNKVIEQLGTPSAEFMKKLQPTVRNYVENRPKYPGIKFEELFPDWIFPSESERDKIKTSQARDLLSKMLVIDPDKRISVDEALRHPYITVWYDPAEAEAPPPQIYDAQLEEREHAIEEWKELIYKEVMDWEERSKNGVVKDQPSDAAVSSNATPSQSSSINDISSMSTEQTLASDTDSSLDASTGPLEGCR

[16] = target: Proto-oncogene tyrosine-protein kinase Src (Homo sapiens) (UniProt P12931); experiment: Inhibition of human SRC assessed as residual activity at 1 uM relative to control
Sequence of Proto-oncogene tyrosine-protein kinase Src (Homo sapiens) (P12931 2-536 limits assumed): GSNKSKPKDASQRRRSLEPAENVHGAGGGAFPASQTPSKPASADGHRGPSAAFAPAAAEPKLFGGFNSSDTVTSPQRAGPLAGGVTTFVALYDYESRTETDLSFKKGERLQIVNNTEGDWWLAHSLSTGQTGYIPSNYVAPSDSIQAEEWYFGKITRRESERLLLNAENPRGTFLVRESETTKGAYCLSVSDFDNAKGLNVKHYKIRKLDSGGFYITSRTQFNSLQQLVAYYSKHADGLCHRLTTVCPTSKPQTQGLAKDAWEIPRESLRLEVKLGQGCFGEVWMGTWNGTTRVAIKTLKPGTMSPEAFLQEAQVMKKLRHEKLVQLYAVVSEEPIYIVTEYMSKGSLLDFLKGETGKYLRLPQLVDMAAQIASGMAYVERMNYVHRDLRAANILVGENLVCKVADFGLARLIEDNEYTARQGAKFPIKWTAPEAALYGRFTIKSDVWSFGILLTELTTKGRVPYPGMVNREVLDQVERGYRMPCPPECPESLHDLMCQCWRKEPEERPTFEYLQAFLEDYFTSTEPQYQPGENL

[17] = target: T3, Inhibitor of nuclear factor kappa-B kinase subunit epsilon (Homo sapiens) (UniProt Q14164); experiment: Inhibition of human IKKepsilon assessed as residual activity at 10 uM relative to control
T3 sequence (whole entry): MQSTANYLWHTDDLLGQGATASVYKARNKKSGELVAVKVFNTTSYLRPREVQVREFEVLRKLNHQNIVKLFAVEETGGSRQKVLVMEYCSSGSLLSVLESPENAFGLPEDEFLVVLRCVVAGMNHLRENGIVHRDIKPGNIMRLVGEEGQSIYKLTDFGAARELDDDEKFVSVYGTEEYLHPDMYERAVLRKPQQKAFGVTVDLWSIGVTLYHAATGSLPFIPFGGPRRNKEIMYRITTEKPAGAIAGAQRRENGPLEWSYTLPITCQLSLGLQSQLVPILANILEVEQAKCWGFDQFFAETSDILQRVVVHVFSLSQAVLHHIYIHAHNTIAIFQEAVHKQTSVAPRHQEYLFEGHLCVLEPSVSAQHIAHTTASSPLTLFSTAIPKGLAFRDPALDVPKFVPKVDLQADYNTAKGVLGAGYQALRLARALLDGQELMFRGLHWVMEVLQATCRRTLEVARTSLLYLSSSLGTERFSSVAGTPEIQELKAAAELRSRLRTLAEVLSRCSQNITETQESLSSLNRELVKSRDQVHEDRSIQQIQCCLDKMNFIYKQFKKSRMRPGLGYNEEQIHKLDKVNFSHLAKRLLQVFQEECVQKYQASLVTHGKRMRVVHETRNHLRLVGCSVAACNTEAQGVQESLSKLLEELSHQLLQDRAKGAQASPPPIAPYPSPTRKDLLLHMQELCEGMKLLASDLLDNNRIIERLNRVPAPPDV

Sequence of Ribosomal protein S6 kinase alpha-3 (Homo sapiens) (P51812 whole entry): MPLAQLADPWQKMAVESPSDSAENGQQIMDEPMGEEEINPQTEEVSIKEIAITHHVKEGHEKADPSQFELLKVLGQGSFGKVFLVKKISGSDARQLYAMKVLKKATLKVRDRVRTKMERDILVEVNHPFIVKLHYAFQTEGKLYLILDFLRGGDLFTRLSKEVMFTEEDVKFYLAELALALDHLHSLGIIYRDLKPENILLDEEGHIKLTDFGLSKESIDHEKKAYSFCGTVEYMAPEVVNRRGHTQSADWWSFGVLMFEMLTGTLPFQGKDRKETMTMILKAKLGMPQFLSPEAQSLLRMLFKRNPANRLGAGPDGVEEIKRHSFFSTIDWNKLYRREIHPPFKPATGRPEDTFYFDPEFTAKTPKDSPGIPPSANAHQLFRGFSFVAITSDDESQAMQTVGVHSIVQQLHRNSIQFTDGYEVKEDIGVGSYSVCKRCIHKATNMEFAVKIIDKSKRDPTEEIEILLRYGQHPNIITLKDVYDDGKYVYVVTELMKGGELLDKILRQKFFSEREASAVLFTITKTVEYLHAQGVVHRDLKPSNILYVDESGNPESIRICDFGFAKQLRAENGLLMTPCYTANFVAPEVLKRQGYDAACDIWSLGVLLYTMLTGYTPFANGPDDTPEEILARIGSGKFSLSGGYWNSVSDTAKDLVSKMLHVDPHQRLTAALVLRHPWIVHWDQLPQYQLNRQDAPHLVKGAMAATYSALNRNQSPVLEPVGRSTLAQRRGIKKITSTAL

Activity [1]	Activity [2]	Activity [3]	Activity [4]	Activity [5]	Activity [6]	Activity [7]	Activity [8]	Activity [9]	Activity [10]	Activity [11]	Activity [12]	Activity [13]	Activity [14]	Activity [15]	Activity [16]	Activity [17]	Compound
78.3%	99.9%	73.9%	83.3%	111%	51.1%	76.2%	107%	66.9%	48.8%	124%	54.6%	10%	97%	70.9%	65%	52%	CC(=O)Nc1cccc(-c2cnc3[nH]nc(C)c3c2)c1
103%	77.6%	83.2%	92.8%	103%	115%	91.9%	99.8%	70.3%	81.4%	94%	99.6%	7.2%	44.4%	23.4%	98.3%	82.4%	CC(=O)Nc1nccc(-c2c(-c3ccccc3)noc2C)n1
87%	81%	61%	94%	93%	91%	5%	92%	92%	58%	79%	68%	84%	70%	88%	75%	89%	CCCC(=O)Nc1n[nH]c2ncc(-c3cccnc3)cc12

— ChEMBL document CHEMBL2429821, “A Casein kinase 1/Checkpoint kinase 1 pyrazolo-pyridine protein kinase inhibitor as novel activator of the p53 pathway” (Bioorg Med Chem Lett, 2013)
